Reference: paper PMC6406002, “Comparison of the functional properties of trimeric and monomeric CaiT of Escherichia coli” (Scientific Reports, 2019)
Read-outs that look alike come from different tables or passages of the source.

Assays:
Test in all cases: tryptophan fluorescence titration
Format in all cases: binding
[1] = molecular target: T1, CaiT (Escherichia coli, UniProt P31553)
T1 construct: full-length with C-terminal 6His tag (pET21a), expressed in E. coli JW0039 (delta caiT), Ni-NTA purified; homotrimer (D288A and D288R mostly monomeric); DDM-solubilized or in proteoliposomes
Text: (§1) tryptophan fluorescence titration on CaiT

[2] = molecular target: T2, CaiT (Escherichia coli, UniProt P31553, D288A)
T2 construct: full-length with C-terminal 6His tag (pET21a), expressed in E. coli JW0039 (delta caiT), Ni-NTA purified; homotrimer (D288A and D288R mostly monomeric); DDM-solubilized or in proteoliposomes
Text: as §1

[3] = molecular target: T3, CaiT (Escherichia coli, UniProt P31553, D288R)
T3 construct: full-length with C-terminal 6His tag (pET21a), expressed in E. coli JW0039 (delta caiT), Ni-NTA purified; homotrimer (D288A and D288R mostly monomeric); DDM-solubilized or in proteoliposomes
Text: as §1

Row | Kd ([1]; read-out: L-carnitine / Kd) [mM] | Kd ([2]; read-out: L-carnitine / Kd) [mM] | Kd ([3]; read-out: L-carnitine / Kd) [mM] | Kd ([1]; read-out: γ-butyrobetaine / Kd) [mM] | Kd ([2]; read-out: γ-butyrobetaine / Kd) [mM] | Kd ([3]; read-out: γ-butyrobetaine / Kd) [mM] | SMILES
1 | 3.3 ± 0.2 | 1.8 ± 0.9 | 1.9 ± 1 | – | – | – | C[N+](C)(C)C[C@H](O)CC(=O)O [L-carnitine]
2 | – | – | – | 3.4 ± 0.1 | 3.3 ± 1.3 | 11.4 ± 4.4 | C[N+](C)(C)CCCC(=O)[O-] [γ-butyrobetaine]
